According to PubChem BioAssay AID720632 (Broad Institute, 2013):
Calls of active or inactive are those of the source. No rule for the calls is given here.

Molecular target: Caspase-6 (Homo sapiens) (UniProt P55212)
Assay: human caspase-6 inhibitors, dose response, biochemical, VEID-R110 fluorescence, cherry-pick (AID 720632)
Details: caspase-6, VEID-R110 fluorogenic substrate

Chain of Caspase-6 (Homo sapiens) (P55212 24-179 limits assumed): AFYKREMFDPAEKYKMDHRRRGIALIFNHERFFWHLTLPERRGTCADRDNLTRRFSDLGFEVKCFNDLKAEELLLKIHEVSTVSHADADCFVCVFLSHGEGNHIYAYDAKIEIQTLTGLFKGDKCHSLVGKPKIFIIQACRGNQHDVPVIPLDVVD
Chain of Caspase-6 (Homo sapiens) (P55212 194-293 limits assumed): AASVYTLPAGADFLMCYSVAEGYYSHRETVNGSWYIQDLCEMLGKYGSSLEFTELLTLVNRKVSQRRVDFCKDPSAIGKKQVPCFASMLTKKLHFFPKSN

| SMILES | activity change, negative = inhibition (at 26 µM (top of the series)) | other results |
| --- | --- | --- |
| O=C(NNS(=O)(=O)c1ccc(F)cc1)c1ccccc1F | inactive | – |
| COC(=O)CN1C(=O)COc2ccc(S(=O)(=O)N3CCCCC3)cc21 | inactive | – |
| CC(C)CCn1c(=O)c2ccccc2n2c(CCC(=O)NCC3CCCO3)nnc12 (stereo unspecified) | inactive | – |
| COc1ccc(-n2c(NNC(C)=O)nc3sc4c(c3c2=O)CCCC4)cc1 | inactive | – |
| C[c-]1[c-](C)[c-](C)[c-](C)[c-]1C.[Fe].c1cc2nccc(N3CCCC3)[c-]2c1 (stereo unspecified) | – | AC50: 5.86 µM |
| CCC(=O)N1CCC1(C)C(=O)Nc1ccc2c(c1)CCN2C(C)=O (stereo unspecified) | inactive | – |
| CCCN1C[C@@H](C)[C@@H](OC)CN(C)C(=O)c2ccc(NC(=O)CC)cc2OC[C@@H]1C | inactive | – |
| COc1cc2sc(C)nc2c2ccccc12 | inactive | – |
| CC1CCCN(CC(O)COC(c2ccccc2)c2ccccc2)C1 (stereo unspecified) | inactive | – |
| CS(=O)(=O)c1ccc(Nc2nc(C(N)COCc3ccccc3)cs2)cc1 (stereo unspecified) | inactive | – |
| CN(C)CCCN(C(=O)c1ccc([N+](=O)[O-])s1)c1nc2cc3c(cc2s1)OCCO3 | – | activity change, negative = inhibition (at 8 µM (top of the series)): inactive |
| Cc1ccc(C)c(OCCC(=O)N2CCN(S(=O)(=O)c3cc(F)ccc3F)CC2)c1 | inactive | – |
| CCC(=O)N1C[C@H](C)[C@H](OC)CN(C)C(=O)c2ccc(NC(=O)c3ccccc3)cc2OC[C@H]1C | inactive | – |
| CCS(=O)(=O)c1nc(S(=O)(=O)c2ccc(Cl)cc2)c(N2CCOCC2)s1 | inactive | – |
| CCOc1ccc(N(CC(=O)Nc2cc(Cl)ccc2C)S(C)(=O)=O)cc1 | inactive | – |
| CCCCCc1ccc(CC(=O)N2CCOCC2)cc1 | inactive | – |
| C[C@H]1CN([C@@H](C)CO)C(=O)CCCn2cc(nn2)CO[C@@H]1CN(C)C(=O)CCC(F)(F)F | inactive | – |
| O=C(Nc1ccccc1)c1ccccc1OCc1cccc([N+](=O)[O-])c1 | inactive | – |
| O=C(NC1CCCCC1)C(c1ccnc2ccccc12)N1CCc2ccccc2C1 (stereo unspecified) | inactive | – |
| c1ccc(CCNc2ccc3ncc(-c4cccc5ccccc45)n3n2)nc1 | inactive | – |
| CCC(=O)Nc1ccc2c(c1)OC[C@@H](C)N(C(=O)CC)C[C@@H](C)[C@@H](OC)CN(C)C2=O | inactive | – |

| SMILES | activity change, negative = inhibition (at 26 µM (top of the series)) | other results |
| --- | --- | --- |
| O=C(C[C@@H]1C[C@H]2c3cc(NC(=O)Nc4ccccc4F)ccc3O[C@H]2[C@H](CO)O1)NC1CCCC1 | inactive | – |
| OC[C@H]1[C@H](c2ccc(-c3ccccc3F)cc2)[C@H]2CN(Cc3cccnc3)CCCCN21 | inactive | – |
| CO[C@H]1CN(C)C(=O)c2ccc(NC(=O)C3CC3)cc2OC[C@@H](C)N(Cc2ccccc2)C[C@H]1C | inactive | – |
| CCCCOc1ccc(C(=O)OCC(=O)N2CCOCC2)cc1 | inactive | – |
| CO[C@@H]1CN(C)C(=O)c2ccc(NC(C)=O)cc2OC[C@H](C)N(C(=O)CC2CC2)C[C@@H]1C | inactive | – |
| N#CC1=C(N)Oc2cc(N)ccc2C1c1ccccc1 (stereo unspecified) | inactive | – |
| COc1cccc(CN2CCc3[nH]c(=S)[nH]c(=O)c3C2)c1 | inactive | – |
| COc1ccccc1C(=O)Nc1ccc2c(c1)OC[C@@H](C)N(CC1CC1)C[C@H](C)[C@@H](OC)CN(C)C2=O | inactive | – |
| COc1cc2[nH]c(Cl)c([N+](=O)[O-])c2cc1OC | inactive | – |
| CC1(C)COC(/C=C/c2cccc([N+](=O)[O-])c2)=N1 | inactive | – |
| O=C(Cc1ccccn1)NCC[C@@H]1CC[C@@H](NC(=O)c2ccccc2F)[C@H](CO)O1 | inactive | – |
| O=S(=O)(NCc1cccnc1)c1ccc(Cl)cc1 | inactive | – |
| COc1ccc(S(=O)(=O)N2CCOC23CCN(S(=O)(=O)c2ccc(C)cc2)CC3)cc1 | inactive | – |
| O=Cc1cscc1[B-](F)(F)F | inactive | – |
| Cn1c(=O)[nH]c(=O)c2c1nc(CN1CCOCC1)n2Cc1ccccc1 | inactive | – |
| O=C(COC(=O)c1ccccc1OCc1ccccc1Cl)NC1CCS(=O)(=O)C1 (stereo unspecified) | inactive | – |
| C[C@@H](NC(=O)C[C@@H]1CC[C@@H](NC(=O)CN2CCOCC2)[C@@H](CO)O1)c1ccccc1 | inactive | – |
| COCCn1c(SCCN2CCOCC2)nc2c1c(=O)[nH]c(=O)n2C | inactive | – |
| CCC1=NN(C(=O)c2ccc(Cl)cc2)C(O)(c2ccc(C)cc2)C1 (stereo unspecified) | inactive | – |
| Cc1nc2ccccc2c(=O)n1-c1ccc(NS(=O)(=O)c2ccc(F)cc2F)cc1 | inactive | – |
| C=C1[C@H](C)CN[C@H]1CCO | inactive | – |

| SMILES | activity change, negative = inhibition (at 26 µM (top of the series)) | other results |
| --- | --- | --- |
| C[C@H](CO)N1C[C@H](C)[C@@H](CN(C)C(=O)c2ccncc2)OCc2cnnn2CCCC1=O | inactive | – |
| CCCC(=O)Nc1ccc2c(c1)OC[C@@H](C)NC[C@@H](C)[C@@H](OC)CN(C)C2=O | inactive | – |
| CO[C@H]1CN(C)C(=O)c2ccc(NC(=O)c3ccccc3)cc2OC[C@@H](C)N(C(=O)C2CC2)C[C@@H]1C | inactive | – |
| COc1ccccc1NS(=O)(=O)c1cc(C(=O)NC2CCN(Cc3ccccc3)CC2)ccc1C | inactive | – |
| O=C(NCC(c1ccco1)N1CCc2ccccc21)c1ccc([N+](=O)[O-])cc1 (stereo unspecified) | inactive | – |
| CCCN1C[C@H](C)[C@@H](OC)CN(C)C(=O)c2ccc(NC(=O)CC)cc2OC[C@H]1C | inactive | – |
| O=C1c2ccccc2C(=O)C1(CO)c1ccccc1 | inactive | – |
| CN1C(=O)CC(Sc2ccccc2C(=O)O)C1=O (stereo unspecified) | inactive | – |
| Cc1cc(C)cc(N(CC(=O)NC(C)C)C(=O)CCC(=O)Nc2ccccn2)c1 | inactive | – |
| COc1cc(N)c(Cl)cc1C(=O)NC1CCN(Cc2ccccc2)CC1 | inactive | – |
| CC(C)(C)N(Cc1ccccc1)C(=O)COC(=O)c1ccc([N+](=O)[O-])o1 | inactive | – |
| COc1ccccc1C#Cc1ccc2c(c1)O[C@@H](CN(C)C)[C@@H](C)CN([C@@H](C)CO)S2(=O)=O | inactive | – |
| C[C@@H]1CN([C@@H](C)CO)C(=O)Cc2cc(N(C)C)ccc2O[C@@H]1CN(C)Cc1ccccc1 | inactive | – |
| CCCC(=O)Nc1ccc2c(c1)OC[C@@H](C)N(C(=O)CC)C[C@@H](C)[C@@H](OC)CN(C)C2=O | inactive | – |
| COc1ccc(NS(=O)(=O)c2cc(NC(=O)[C@H](C)NC(N)=O)ccc2N2CCCC2)cc1 | inactive | – |
| Oc1ccc(/C=N/N=C/c2ccc(O)c(O)c2)cc1O | inactive | – |
| CCCNC(=O)[C@@H]1[C@@H](CO)[C@@H]2Cn3c(ccc(-c4ccccc4)c3=O)[C@@H]2N1CC1CC1 | inactive | – |
| Nc1ccc2cn[nH]c2c1 | inactive | – |
| Cc1ccc(NC(=O)c2sc(C)nc2C)c(C)c1 | inactive | – |
